Columns and labels:
[1] = target: FASN Keto-reductase Domain (hFASN enzyme, full length) (Homo sapiens (Human), UniProt P49327); test: Fatty Acid Synthase Keto-reductase Domain (FASN KR) Inhibition; assay type: biochemical; conditions: NADPH oxidation at 340 nm, ethyl acetoacetate substrate; for IC50: read-out: FASN Keto-reductase Domain pIC50 (converted)
Method: After 20 minutes incubation at room temperature the plate was measured again (T2).
The decrease in absorbance was calculated as (Absorbance before incubation T1)−(Absorbance following incubation T2).
(§1) Raw data generated by the instrument were normalized to % Controlmin values, which were calculated as: % Controlmin=100*(x−mLC)/(mHC−mLC)
(§2) where mLC and mHC were the means of the low control wells and high control wells on the plate, after manual exclusion of outliers. A plot of Controlmin versus test compound concentration was fitted to a 4-parameter logistic curve using a non-linear least squares regression method.

[2] = target: hFASN enzyme (full length) (Homo sapiens (Human), UniProt P49327); test: Fatty Acid Synthase (FASN) Inhibition Scintillation Proximity Assay; assay type: biochemical; conditions: 3H-acetyl-CoA and malonyl-CoA substrates, SPA, mean if tested more than once; for IC50: read-out: Human FASN pIC50 (converted)
Method: In this assay, inhibition of FASN activity is measured using ^3H-acetyl-CoA and malonyl-CoA as substrates. ^3H-Acetyl CoA is converted to ^3H-palmitate through a series of reactions by the FASN protein, which contains 7 functional domains and carries out 7 enzymatic reactions to ultimately produce ^3H-palmitate. The assay principle is based upon the fact that ^3H-acetyl-CoA is hydrophilic and the end product, ^3H-palmitate is hydrophobic.
10 μL assay buffer (100 mM KH2PO4 pH 7.5, 1 mM DTT) (20 μL in blanks) was added to a 384-well white Opti Plate plate (Perkin Elmer). 0.9 μL test compound (at concentrations of 30 μM, 10 μM, 3 μM, 1 μM, 0.30 μM, 0.10 μM, 0.03 μM and 0.01 μM)/DMSO and 10 μL hFASN enzyme (full length, 300 ng, purified in house) or 10 μL assay buffer was added to the wells. […] The reaction was stopped by adding 20 μL Streptavidin coupled imaging beads (25 mg/ml). After incubation for 30 minutes at room temperature in the dark, the 384 well plate was centrifuged at 1500 rpm for 3 minutes and was measured after at least 24 hrs by the LEADseeker™, measuring emission using a 610±20 nm pass filter.
as §1, §2

Sequence of FASN Keto-reductase Domain (hFASN enzyme, full length) (P49327 whole entry, the tested form may be a part): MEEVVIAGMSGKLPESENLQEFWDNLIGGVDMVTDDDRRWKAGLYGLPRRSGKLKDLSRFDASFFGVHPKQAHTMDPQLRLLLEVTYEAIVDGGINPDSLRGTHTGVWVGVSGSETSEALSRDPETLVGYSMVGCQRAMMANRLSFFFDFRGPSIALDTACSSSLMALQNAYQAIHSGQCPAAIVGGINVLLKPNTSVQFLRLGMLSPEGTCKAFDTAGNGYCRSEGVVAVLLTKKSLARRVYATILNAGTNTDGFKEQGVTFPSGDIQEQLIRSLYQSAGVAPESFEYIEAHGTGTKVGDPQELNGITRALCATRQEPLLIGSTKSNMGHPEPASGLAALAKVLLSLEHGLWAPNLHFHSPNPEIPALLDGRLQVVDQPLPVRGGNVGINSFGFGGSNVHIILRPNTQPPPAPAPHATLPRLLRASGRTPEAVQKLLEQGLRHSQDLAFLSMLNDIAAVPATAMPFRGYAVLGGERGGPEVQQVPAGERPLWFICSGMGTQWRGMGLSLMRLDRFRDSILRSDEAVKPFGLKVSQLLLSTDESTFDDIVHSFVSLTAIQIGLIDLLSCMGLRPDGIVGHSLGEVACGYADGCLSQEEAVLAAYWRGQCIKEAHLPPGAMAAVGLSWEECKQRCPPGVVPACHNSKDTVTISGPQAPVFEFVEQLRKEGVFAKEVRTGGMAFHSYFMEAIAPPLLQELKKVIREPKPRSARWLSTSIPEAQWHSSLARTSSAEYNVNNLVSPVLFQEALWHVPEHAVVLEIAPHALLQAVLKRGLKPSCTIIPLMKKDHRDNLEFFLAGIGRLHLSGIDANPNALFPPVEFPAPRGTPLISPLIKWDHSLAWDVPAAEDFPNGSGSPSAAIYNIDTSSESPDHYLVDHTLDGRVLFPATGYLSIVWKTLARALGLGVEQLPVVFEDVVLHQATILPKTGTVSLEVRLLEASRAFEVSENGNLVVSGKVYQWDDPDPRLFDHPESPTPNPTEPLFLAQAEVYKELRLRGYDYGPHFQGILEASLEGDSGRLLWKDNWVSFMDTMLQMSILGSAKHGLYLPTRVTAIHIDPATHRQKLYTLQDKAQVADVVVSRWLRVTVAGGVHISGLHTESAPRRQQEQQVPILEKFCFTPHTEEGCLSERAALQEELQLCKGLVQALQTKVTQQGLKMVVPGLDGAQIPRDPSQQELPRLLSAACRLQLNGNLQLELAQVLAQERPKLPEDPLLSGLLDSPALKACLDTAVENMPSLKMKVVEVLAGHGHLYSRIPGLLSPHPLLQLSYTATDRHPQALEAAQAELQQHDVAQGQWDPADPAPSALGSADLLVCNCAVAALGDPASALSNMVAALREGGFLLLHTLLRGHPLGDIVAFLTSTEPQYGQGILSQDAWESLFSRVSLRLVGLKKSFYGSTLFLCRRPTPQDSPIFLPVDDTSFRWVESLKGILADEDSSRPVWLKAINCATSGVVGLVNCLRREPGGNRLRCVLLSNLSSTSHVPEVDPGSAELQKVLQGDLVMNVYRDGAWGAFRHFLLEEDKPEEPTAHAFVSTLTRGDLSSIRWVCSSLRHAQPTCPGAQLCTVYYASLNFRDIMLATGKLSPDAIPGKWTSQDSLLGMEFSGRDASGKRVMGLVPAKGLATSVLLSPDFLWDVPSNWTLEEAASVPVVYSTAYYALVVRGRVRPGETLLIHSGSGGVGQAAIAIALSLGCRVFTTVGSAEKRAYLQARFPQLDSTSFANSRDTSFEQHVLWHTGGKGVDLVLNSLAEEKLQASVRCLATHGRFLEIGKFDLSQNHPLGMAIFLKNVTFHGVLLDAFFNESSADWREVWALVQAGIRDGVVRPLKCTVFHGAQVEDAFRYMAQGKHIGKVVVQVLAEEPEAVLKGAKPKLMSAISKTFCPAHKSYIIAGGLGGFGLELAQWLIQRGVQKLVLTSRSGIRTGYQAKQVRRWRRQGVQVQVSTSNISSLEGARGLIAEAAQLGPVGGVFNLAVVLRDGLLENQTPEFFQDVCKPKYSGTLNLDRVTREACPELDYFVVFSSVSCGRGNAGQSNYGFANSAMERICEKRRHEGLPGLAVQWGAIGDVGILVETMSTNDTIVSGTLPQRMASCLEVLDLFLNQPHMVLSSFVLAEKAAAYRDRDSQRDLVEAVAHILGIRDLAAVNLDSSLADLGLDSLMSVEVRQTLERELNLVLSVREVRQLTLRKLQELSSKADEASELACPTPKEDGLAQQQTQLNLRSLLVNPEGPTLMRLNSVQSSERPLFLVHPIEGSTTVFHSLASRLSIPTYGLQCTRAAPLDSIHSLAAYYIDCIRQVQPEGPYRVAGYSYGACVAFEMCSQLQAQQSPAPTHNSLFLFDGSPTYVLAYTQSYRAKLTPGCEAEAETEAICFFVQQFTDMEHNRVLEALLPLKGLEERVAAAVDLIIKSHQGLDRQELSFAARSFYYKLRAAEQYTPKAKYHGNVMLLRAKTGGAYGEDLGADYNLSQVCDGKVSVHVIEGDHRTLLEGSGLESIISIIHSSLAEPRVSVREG
Sequence of hFASN enzyme (full length) (P49327 whole entry, the tested form may be a part): as above

Row | FASN Keto-reductase Domain pIC50 [1] | Human FASN pIC50 [2] | SMILES | IC50 [1] | IC50 [2]
1 | 7.25 | 7.25 | CC1(C)N=C(c2ccc(-c3ccc4cccnc4c3)cc2)N(C[C@@H]2CCN(C(=O)C3CC3)C2)C1=O [Compound 23, (R)-1-((1-(cyclopropanecarbonyl)pyrrolidin-3-yl)methyl)-4,4-dimethyl-2-(4-(quinolin-7-yl)phenyl)-1H-imidazol-5(4H)-one] |  | 
2 | 6.46 | 6.75 | CC1(C)N=C(c2ccc(-c3ccc4cccc(F)c4c3)cc2)N(CC2CN(C(=O)C3CC3)C2)C1=O [Compound 40, 1-((1-(cyclopropanecarbonyl)azetidin-3-yl)methyl)-2-(4-(8-fluoronaphthalen-2-yl)phenyl)-4,4-dimethyl-1H-imidazol-5(4H)-one] |  | 
3 | 6.38 | 6.74 | Cn1cc(-c2ccc(-c3ccc(C4=NC(C)(C)C(=O)N4CC4CN(C(=O)C5CC5)C4)c(F)c3)cc2)cn1 [Compound 33, 1-((1-(cyclopropanecarbonyl)azetidin-3-yl)methyl)-2-(3-fluoro-4′-(1-methyl-1H-pyrazol-4-yl)-[1,1′-biphenyl]-4-yl)-4,4-dimethyl-1H-imidazol-5(4H)-one] |  | 
4 | 6.60 | 7.46 | CC1(C)N=C(c2ccc(-c3ccc4cccc(F)c4c3)cc2F)N(CC2CN(C(=O)C3CC3)C2)C1=O [Compound 55, 1-((1-(cyclopropanecarbonyl)azetidin-3-yl)methyl)-2-(2-fluoro-4-(8-fluoronaphthalen-2-yl)phenyl)-4,4-dimethyl-1H-imidazol-5(4H)-one] |  | 
5 | 6.08 | ~6.22 | CC1(C)N=C(c2ccc(-c3ccc(-c4ccncc4)cc3)cc2)N(CC2CN(C(=O)C3CC3)C2)C1=O [Compound 26, 1-((1-(cyclopropanecarbonyl)azetidin-3-yl)methyl)-4,4-dimethyl-2-(4′-(pyridin-4-yl)-[1,1′-biphenyl]-4-yl)-1H-imidazol-5(4H)-one] |  | 
6 | 7.38 | 7.26 | Cn1cc(-c2ccc(-c3ccc(C4=NC(C)(C)C(=O)N4C[C@@H]4CCN(C(=O)C5(C)CC5)C4)c(F)c3)cc2)cn1 [Compound 74, (R)-2-(3-fluoro-4′-(1-methyl-1H-pyrazol-4-yl)-[1,1′-biphenyl]-4-yl)-4,4-dimethyl-1-((1-(1-methylcyclopropanecarbonyl)pyrrolidin-3-yl)methyl)-1H-imidazol-5(4H)-one] |  | 
7 | 6.80 | 7.10 | Cc1cc(-c2ccc3c(c2)ncn3C)ccc1C1=NC(C)(C)C(=O)N1C[C@@H]1CCN(C(=O)C2(C)CC2)C1 [Compound 85, (R)-4,4-dimethyl-2-(2-methyl-4-(1-methyl-1H-benzo[d]imidazol-5-yl)phenyl)-1-((1-(1-methylcyclopropanecarbonyl)pyrrolidin-3-yl)methyl)-1H-imidazol-5(4H)-one] |  | 
8 | 6.33 | 6.72 | CC1(C)N=C(c2ccc(-c3cccc4ncccc34)cc2)N(C[C@@H]2CCN(C(=O)C3CC3)C2)C1=O [Compound 31, (R)-1-((1-(cyclopropanecarbonyl)pyrrolidin-3-yl)methyl)-4,4-dimethyl-2-(4-(quinolin-5-yl)phenyl)-1H-imidazol-5(4H)-one] |  | 
9 | 6.15 | 6.85 | Cn1ncc2cc(-c3ccc(C4=NC(C)(C)C(=O)N4C[C@@H]4CCN(C(=O)C5CC5)C4)cc3)ccc21 [Compound 2, (R)-1-((1-(cyclopropanecarbonyl)pyrrolidin-3-yl)methyl)-4,4-dimethyl-2-(4-(1-methyl-1H-indazol-5-yl)phenyl)-1H-imidazol-5(4H)-one] |  | 
10 | 7.17 | 7.18 | Cn1ncc2cc(-c3ccc(C4=NC(C)(C)C(=O)N4C[C@@H]4CCN(C(=O)C5(C)CC5)C4)c(F)c3)ccc21 [Compound 73, (R)-2-(2-fluoro-4-(1-methyl-1H-indazol-5-yl)phenyl)-4,4-dimethyl-1-((1-(1-methylcyclopropanecarbonyl)pyrrolidin-3-yl)methyl)-1H-imidazol-5(4H)-one] |  | 
11 | 6.19 | 6.61 | Cn1ncc2cc(-c3ccc(C4=NC(C)(C)C(=O)N4CC4CN(C(=O)C5(O)CC5)C4)c(F)c3)ccc21 [Compound 78, 2-(2-fluoro-4-(1-methyl-1H-indazol-5-yl)phenyl)-1-((1-(1-hydroxycyclopropanecarbonyl)azetidin-3-yl)methyl)-4,4-dimethyl-1H-imidazol-5(4H)-one] |  | 
12 | 6.73 | 7.16 | CC1(C)N=C(c2ccc(-c3c[nH]c4ccccc34)cc2F)N(C[C@@H]2CCN(C(=O)C3CC3)C2)C1=O [Compound 63, (R)-1-((1-(cyclopropanecarbonyl)pyrrolidin-3-yl)methyl)-2-(2-fluoro-4-(1H-indol-3-yl)phenyl)-4,4-dimethyl-1H-imidazol-5(4H)-one] |  | 
13 | 6.86 | 7.32 | CC1(C)N=C(c2ccc(-c3ccc4[nH]ccc4c3)cc2)N(C[C@@H]2CCN(C(=O)C3CC3)C2)C1=O [Compound 1, (R)-2-(4-(1H-Indol-5-yl)phenyl)-1-((1-(cyclopropanecarbonyl)pyrrolidin-3-yl)methyl)-4,4-dimethyl-1H-imidazol-5(4H)-one] |  | 
14 | 7.27 | 7.27 | Cc1cc(-c2ccc(-c3cnn(C)c3)cc2)ccc1C1=NC(C)(C)C(=O)N1C[C@@H]1CCN(C(=O)C2(C)CC2)C1 [Compound 84, (R)-4,4-dimethyl-2-(3-methyl-4′-(1-methyl-1H-pyrazol-4-yl)-[1,1′-biphenyl]-4-yl)-1-((1-(1-methylcyclopropanecarbonyl)pyrrolidin-3-yl)methyl)-1H-imidazol-5(4H)-one] |  | 
15 | 6.20 | 6.99 | Cn1cc(-c2ccc(-c3ccc(C4=NC(C)(C)C(=O)N4C[C@@H]4CCN(C(=O)C5CC5)C4)cc3)cc2)cn1 [Compound 16, (R)-1-((1-(cyclopropanecarbonyl)pyrrolidin-3-yl)methyl)-4,4-dimethyl-2-(4′-(1-methyl-1H-pyrazol-4-yl)-[1,1′-biphenyl]-4-yl)-1H-imidazol-5(4H)-one] |  | 
16 |  |  | CC1(C2CC2)N=C(c2ccc(-c3ccc4occc4c3)cc2)N(C[C@@H]2CCN(C(=O)C3CC3)C2)C1=O (mixture of isomers) [Compound 9, (4RS)-2-(4-(Benzofuran-5-yl)phenyl)-1-(((R)-1-(cyclopropanecarbonyl)pyrrolidin-3-yl)methyl)-4-cyclopropyl-4-methyl-1H-imidazol-5(4H)-one] | 603 nM | 331 nM
17 | 6.96 | 7.20 | Cc1cc(-c2ccc3c(cnn3C)c2)ccc1C1=NC(C)(C)C(=O)N1C[C@@H]1CCN(C(=O)C2(C)CC2)C1 [Compound 80, (R)-4,4-dimethyl-2-(2-methyl-4-(1-methyl-1H-indazol-5-yl)phenyl)-1-((1-(1-methylcyclopropanecarbonyl)pyrrolidin-3-yl)methyl)-1H-imidazol-5(4H)-one] |  | 
18 | 6.75 | 7.40 | CC1(C)N=C(c2ccc(-c3ccc(-c4ccncc4)cc3)cc2)N(C[C@@H]2CCN(C(=O)C3CC3)C2)C1=O [Compound 15, (R)-1-((1-(cyclopropanecarbonyl)pyrrolidin-3-yl)methyl)-4,4-dimethyl-2-(4′-(pyridin-4-yl)-[1,1′-biphenyl]-4-yl)-1H-imidazol-5(4H)-one] |  | 
19 | 7.13 | 7.34 | CC1(C)N=C(c2ccc(-c3ccc4cccc(F)c4c3)cc2)N(C[C@@H]2CCN(C(=O)C3CC3)C2)C1=O [Compound 41, (R)-1-((1-(cyclopropanecarbonyl)pyrrolidin-3-yl)methyl)-2-(4-(8-fluoronaphthalen-2-yl)phenyl)-4,4-dimethyl-1H-imidazol-5(4H)-one] |  | 
20 | 6.92 | 7.52 | CC1(C)N=C(c2ccc(-c3ccc4cc(F)ccc4c3)cc2F)N(CC2CN(C(=O)C3(O)CC3)C2)C1=O [Compound 79, 2-(2-fluoro-4-(6-fluoronaphthalen-2-yl)phenyl)-1-((1-(1-hydroxycyclopropanecarbonyl)azetidin-3-yl)methyl)-4,4-dimethyl-1H-imidazol-5(4H)-one] |  | 
21 |  |  | CC1(c2ccccc2)N=C(c2ccc(-c3ccc4occc4c3)cc2)N(C[C@@H]2CCN(C(=O)C3CC3)C2)C1=O (mixture of isomers) [Compound 5, (4RS)-2-(4-(Benzofuran-5-yl)phenyl)-1-(((R)-1-(cyclopropanecarbonyl)pyrrolidin-3-yl)methyl)-4-methyl-4-phenyl-1H-imidazol-5(4H)-one] | 537 nM | 155 nM
